pIC50: −log10 of the molar value. Like-named read-outs stand apart in the source and are kept apart here.
Legend:
[1] = system: neutral proteases (metalloproteases); assay: Inhibition of neutral proteases (metalloproteases) in supernatant of IL-1β-stimulated rabbit joint chondrocytes, azocoll substrate; type: biochemical; settings: IL-1β 1 ng/ml, 48 hours, APMA-activated supernatant, read-out: MP (metalloproteases) IC50
Experimental: (§1) a) The activity in inhibiting the formation of NO, measured as NO2^− (nitrites), PGE2, and neutral protease, was investigated in vitro on culture broths of rabbit joint chondrocytes stimulated by cytokine IL-1β (1 ng/ml) for 48 hours. For the preparation of the chondrocytes, the method described by Berenbaum et al [FEBS Letters 340, 51-55 (1994)] was followed. Briefly, fragments of cartilage removed under sterile conditions from the heads of rabbit shoulder, hip and knee joints were chopped finely and digested at 37° C. by hyaluronidase, trypsin and collagenase solutions, giving rise, after filtration on sterile gauze and centrifuging at 600×g and suitable dilution with 10% DMEM-FCS, to a concentration of approximately 1×10^5 cells per well. The cells were kept in these conditions until confluence (about 15 days), the broth being changed every 3 days. At this point, the products under test, dissolved in the medium, were added to each test sample and, after 20 minutes, 350 μl IL-1β was added in order to have a final concentration of 1 ng/ml. The duration of the stimulation was 48 hours at 37° C. (incubation air-CO2 7%). Measurement of the nitrites, as described by Green et al. [Anal. Biochem. 126, 131-138 (1982)], and of the PGE2s by RIA measurement, was then performed on the cell supernatant fluid. The measurement of the neutral proteases was performed in the cell supernatant fluid containing the p-aminophenyl mercury acetate (APMA) activator with the use of azocoll as the substrate and with incubation at 37° C. for 17 h as described by Chavira et al. [Anal. Biochem. 136, 446-450 (1984)]. In order to evaluate the direct inhibitory effect of the compounds under test on the hydrolytic activity of the cell supernatant fluid, they were added to the supernatant fluid containing the proteases induced by IL-1β and already activated by AMPA.
(§2) The results obtained are shown in Table 3, in which the IC50, that is, the concentration (micromolar) of antagonist which can inhibit the formation of nitrites, PGE2s, and neutral proteases, respectively, by 50% relative to the control group, that is, to the cells stimulated with IL-1β but without the addition of antagonists, is given for some of the compounds of the invention already given by way of example in Table 2.

[2] = system: extravasation in the ears of mice; assay: Extravasation (Evans Blu) induced by phlogogenic agents in the ears of mice; type: in vivo; settings: for % inhibition of extravasation, PAF: 1 h; for % inhibition of extravasation, Zymosan: 2 h; for % inhibition of extravasation, Arachidonic Acid / % inhibition of extravasation, Bradykinin / % inhibition of extravasation, Histamine: 30 min; for ED50: OS, mouse ear
Experimental: b) Some of the compounds of the invention, such as compounds I-4, I-11 and I-31, were evaluated in vivo in a series of experimental extravasation models in which 5 μl of the preselected phlogogenic agent dissolved in physiological solution was injected intradermally into the ears of mice as described by Erdo et al., with slight modifications [Agents and Actions 39, 137-142 (1993)].
The products under test were administered orally 1 hour before the challenge and, 30 minutes before the challenge, the dye Evans Blu was injected intravenously in a dose of 100 mg/kg. The animals were killed at a time predetermined according to the test, 30 min.—2 hours after the challenge. The extravasation was evaluated by determining the quantity of dye present in the ear, extracted after homogenisation of the tissue in 2 ml of formamide and incubation at 50° C. for 2 hours. After centrifuging, the amount of dye was determined by measuring the absorption at 620 nm. The maximum % effect (% MPE) was calculated by the following formula:
[formula] in which EV is the mean absorption observed in the group of animals treated solely with the phlogogenic agent, ED is the group treated with the phlogogenic agent and the drug, and EB is the base value, that is, the value for the animals injected with physiological solution alone.
The phlogogenic agents used were:
Arachidonic acid (dissolved in EtOH); (1 mg/mouse; killed+30 min); histamine (3 nmoli/mouse; killed+30 min); PAF (30 pmoli/mouse; killed+60 min); Zymosan (10 μg/mouse; killed+120 min); bradykinin (0.6 nmoli/mouse; killed+30 min).

formation of PGE2 = assay: Inhibition of PGE2 formation in rabbit joint chondrocytes stimulated by IL-1β (RIA); type: cell-based; settings: Oryctolagus cuniculus, Chondrocyte, IL-1β 1 ng/ml, 48 hours
Experimental: as §1, §2

## CCCCCNC(=S)Nc1ccc(NC(C)=N)cc1 [Compound I-4, N-[4-(N-acetamidine)phenyl]-N′-pentyl Thiourea]
[1]
  pIC50: 5.18
[2]; 2.5 mg/kg OS, PAF
  % inhibition of extravasation, PAF: 41.9%
[2]; 2.5 mg/kg OS, Zymosan
  % inhibition of extravasation, Zymosan: 40.0%
[2]; 5 mg/kg OS
  % inhibition of extravasation, Arachidonic Acid: 37.8%
  % inhibition of extravasation, Bradykinin: 30.1%
  % inhibition of extravasation, Histamine: 17.8%
[2]; 5 mg/kg OS, PAF
  % inhibition of extravasation, PAF: 49.9%
[2]; 5 mg/kg OS, Zymosan
  % inhibition of extravasation, Zymosan: 66.6%
[2]; 10 mg/kg OS
  % inhibition of extravasation, Arachidonic Acid: 40.0%
  % inhibition of extravasation, Bradykinin: 30.7%
  % inhibition of extravasation, Histamine: 27.7%
[2]; 10 mg/kg OS, PAF
  % inhibition of extravasation, PAF: 55.1%
[2]; 10 mg/kg OS, Zymosan
  % inhibition of extravasation, Zymosan: 65.8%
[2]; 20 mg/kg OS
  % inhibition of extravasation, Arachidonic Acid: 52.6%
  % inhibition of extravasation, Bradykinin: 49.1%
  % inhibition of extravasation, Histamine: 38.8%
[2]; 20 mg/kg OS, PAF
  % inhibition of extravasation, PAF: 56.4%
[2]; 20 mg/kg OS, Zymosan
  % inhibition of extravasation, Zymosan: 83.9%
[2]; 40 mg/kg OS
  % inhibition of extravasation, Arachidonic Acid: 55.5%
  % inhibition of extravasation, Bradykinin: 51.3%
  % inhibition of extravasation, Histamine: 52.5%
[2]; 40 mg/kg OS, PAF
  % inhibition of extravasation, PAF: 66.2%
[2]; 40 mg/kg OS, Zymosan
  % inhibition of extravasation, Zymosan: 89.8%
[2]; 80 mg/kg OS, Zymosan
  % inhibition of extravasation, Zymosan: 95.5%
[2]; Mus musculus, 5 mg/kg, models other than Zymosan, read-out: mean inhibitory effect in the other extravasation models
  inhibition at 5 mg/kg: ~35%
[2]; PAF, read-out: ED50, extravasation induced by PAF
  ED50: 6.1 mg/kg
[2]; Zymosan, read-out: ED50, extravasation induced by Zymosan
  ED50: 3.1 mg/kg
[2]; arachidonic acid, read-out: ED50, extravasation induced by AA (arachidonic acid)
  ED50: 20.5 mg/kg
[2]; bradykinin, read-out: ED50, extravasation induced by Bradykinin
  ED50: 32.6 mg/kg
[2]; histamine, read-out: ED50, extravasation induced by Histamine
  ED50: 37 mg/kg
Formation of PGE2
  pIC50: 5.48
other
  melting point: 190.7 to 191.4 °C
